{"source": "patent US20230338344A1", "about": "“AMPK Activators and Methods of Use Thereof” (Bioverativ Therapeutics Inc., priority 2020, published 2023)", "key": {"human CD34+ cells [1]": {"test_system": "human CD34+ cells", "experiment": "Fetal hemoglobin (HbF) induction in mobilized CD34+ HSPC from healthy individuals during erythroid differentiation, F-cells by flow cytometry", "assay_type": "cell-based", "conditions": "healthy donors; for fetal hemoglobin induction, F-cell (HbF+) frequency in enucleated GlyA+ cells: vs DMSO or single agents; for frequency of F-cells (HbF+): compared to vehicle (DMSO)", "description": "Mobilized CD34+ Human Stem/Progenitor Cells (HSPC) from healthy individuals were cultured for 3 days in a maintenance media consisting of X-VIVO 10 (VWR), 100 U/mL penicillin-streptomycin (ThermoFisher), 2 mM L-glutamine (Fisher Scientific), 100 ng/mL Recombinant Human Stem Cell Factor (SCF), 100 ng/mL Recombinant Human Thrombopoietin (TPO) and 100 ng/mL Recombinant Human Flt-3 Ligand (Flt-3L) (all three from ThermoFisher). Cells were differentiated into erythroid cells using a three-step differentiation protocol developed by the Luc Douay group (Giarratana et al. 2005). […] On day 7, cells were transferred to step 2 media, a step 1 media without hydrocortisone and IL-3, and cultured for 3-4 days. Then cells were cultured for 8-9 days in step 3 media, a step 2 media without SCF. […] To determine the percentage of HbF-positive cells (F-cells), differentiate cells were fixed and permeabilized using a fixation kit (ThermoFisher). Cells were stained with PE-Cy7-conjugated anti-CD235 or PE-conjugated anti-CD71 antibodies. HbF levels were detected using Allophycocyanin (APC)-conjugated anti-HbF antibody (ThermoFisher). The acquisition of stained cells was performed on BD FACSCanto™ and the analysis was run using FlowJo™ Software.\nHuman CD34+ cells were exposed to β1-selective AMPK activators and pan-AMPK activators during the 21-day differentiation process. To assess fetal hemoglobin expression level, cells were fixed and stained with CD235a, CD71 and fetal hemoglobin antibodies for flowcytometry analysis.\nAfter 14 days of differentiation, cells were fixed and stained with CD235a, CD71 and fetal hemoglobin antibodies for flowcytometry analysis."}, "human CD34+ cells [2]": {"test_system": "human CD34+ cells", "experiment": "Maturation of CD34+ cells to erythrocytes: enucleation (NucRed) and markers CD71/CD235a by flow cytometry", "assay_type": "cell-based", "description": "During human CD34+ cells differentiation, maturation is measured by quantification of enucleation and expression of markers CD71 and CD235a, and assessed by flowcytometry. […] As well, cells were stained for markers CD235a and CD71. The acquisition was performed on BD FACSCanto™ and the analysis was done using FlowJo™ Software."}, "[3]": {"test_system": "human CD34+ cells from sickle cell donors", "experiment": "Fetal hemoglobin induction in CD34+ cells from patients with sickle cell disease, 14-day differentiation", "assay_type": "cell-based", "conditions": "14 days of differentiation, vs DMSO", "source_text": "To measure the effect of AMPK activators on fetal hemoglobin induction in CD34+ cells from patients with sickle cell disease, circulating CD34+ progenitor cells were isolated from total blood obtained from a sickle cell patients, by performing a positive selection for CD34+ cells with magnetic beads (Miltenyi Biotec). Purified CD34+ cells were differentiated for 14 days. After differentiation, cells were fixed and stained with CD235a, CD71 and fetal hemoglobin antibodies for flowcytometry analysis."}, "M1 macrophages": {"test_system": "M1 macrophages", "experiment": "Macrophage polarization to pro-inflammatory M1 phenotype, markers by flow cytometry", "assay_type": "cell-based, human", "conditions": "M-CSF polarized macrophages activated by IFN-γ or LPS for 24 h", "description": "M1 macrophages were induced by stimulation with M-CSF (50 ng/mL) for 6 days, then activated by IFN-7 or LPS for 24 h, fixed, stained for M1 polarization markers CD38, CD64, CD86 and CD80 and acquired by flowcytometry."}, "[4]": {"test_system": "HBG (human gamma-globin) mRNA", "experiment": "gamma-globin (HBG) mRNA in Townes mouse bone marrow by qRT-PCR", "assay_type": "in vivo", "conditions": "HbAA mice bone marrow, 2 days of exposure, 100 mg/kg", "description": "Total RNA from Townes mouse bone marrow cells was prepared using a RNeasy Mini kit (Qiagen). A quantity of 1 μg of mRNA was reverse transcribed using an iVILO Retro Transcription kit (ThermoFisher). 50 ng of the resulting cDNA was amplified by Taqman amplification in a QuantStudio thermocycler (Life Technologies) using HBG (human 7-globin primers) as gene of interest, and GAPDH (mouse gapdh primers) as a housekeeping gene (Life Technologies). The delta Ct was calculated and difference in mRNA expression was expressed as a fold-change to vehicle condition."}, "fetal hemoglobin protein": {"test_system": "fetal hemoglobin protein", "experiment": "Human fetal hemoglobin protein in Townes mice bone marrow by flow cytometry, 15-day study", "assay_type": "in vivo, mouse", "conditions": "HbSS Townes mice, 100 mg/kg PO QD 15 days, vs vehicle", "excerpt": "These mice express the genes for human HbS (homozygous HbSS), express the physiopathological phenotype of SCD and are called “HbSS-Townes mice”, whereas the control Townes mice express the genes for human HbA without the sickle mutation (homozygous HbAA), are healthy, and are called “HbAA-Townes mice” (Jackson Laboratory). These control HbAA-Townes mice were created by replacing the murine globin genes with human α-globin gene (genotype: Hba hα/hα) and linked human βA− and fetal Aγ-globins (genotype: Hbb hAγβA/hAγβA), whereas HbSS-Townes mice were created by replacing the murine adult α-globin genes with the human α-globin gene (genotype: Hba hα/hα), and the murine adult β-globin genes were replaced with human sickle βS− and fetal Aγ-globin gene fragments linked together (genotype: Hbb hAγβS/hAγβS)."}, "[5]": {"test_system": "Reactive Oxidative Species (ROS)", "experiment": "Reactive Oxidative Species (ROS) in bone marrow from Townes SCD mice by flow cytometry", "assay_type": "in vivo, mouse", "conditions": "100 mg/kg PO QD 15 days, vs HbSS mice treated with vehicle"}, "[6]": {"test_system": "Nrf2-oxidative stress response pathway", "experiment": "Transcriptomic and proteomic analysis of human CD34+ cells differentiated 14 days (correlation study, IPA)", "assay_type": "cell-based", "conditions": "3 healthy donors", "description": "At day 14, RNA was extracted with Trizol reagent (Invitrogen). DNase treatment, RNA integrity and quantification, libraries generation and sequencing (Illumina HiSeq platforms HiSeq 2500) were realized according to Genewiz protocol (South Plainfield, NJ). Concerning the proteomic analysis, proteins were extracted from the same CD34+ cells used for the transcriptomic analysis. Samples preparation, proteins digestion, peptides TMT labeling and proteomic analysis were performed according to IQ Proteomics (Cambridge, MA). Bioinformatics analysis have been conducted to determine the differential expression of mRNA and proteins, and a correlation study using the differential expression from the transcriptomic analysis and the differential expression from the proteomics analysis has been run. […] SQSTM1 is known to activate Nrf2 by inhibiting Keapl, and Nrf2 pathway is known to induce HO-1 for antioxidative function in cells."}, "[7]": {"experiment": "7-day toxicological study in rats, hematological erythroid parameters", "assay_type": "in vivo, Crl:CD (Sprague Dawley) rats", "conditions": "rats, 100, 300 and 1000 mg/kg/day PO QD 7 days, blood on day 8", "description": "On day 8, blood samples were drawn and complete blood counts (CBC) were tested on a hematology analyzer to determine red blood cell counts (10^6 RBC/μL), hemoglobin (Hb, g/dL) and hematocrit (HCT, %)."}, "AMPK [8]": {"test_system": "AMPK", "experiment": "AMPK target engagement: Thr172 phosphorylation of alpha-AMPK (Alpha SureFire Ultra Multiplex) in undifferentiated HUDEP-2 cells", "assay_type": "cell-based, human", "description": "Phosphorylation of AMPK at threonine 172 (Thr172) on the α-subunit of AMPK was assessed by […] using the Alpha SureFire Ultra Multiplex p-AMPKα1/2 (Thr172)+Total AMPKα1/2 Assay Kit from Perkin Elmer as a target engagement assay. The assay kit contains antibodies, coupled with fluorophore Europium, which recognize the phospho-Thr172 epitope and a distal epitope on α-AMPK of human or mouse AMPK. The kit also contains antibodies coupled with the fluorophore Terbium to measure the total levels of AMPK. […] As to the human HUDEP-2 cells line, cells were undifferentiated during exposure to AMPK activators. According to the time course, cells were collected and lysed using RIPA buffer mixed with a phosphatase and protease inhibitors cocktail (Thermofisher). Phospho-AMPK signal was divided by total AMPK signal and the ratio was normalized to the total protein concentration. Samples protein concentrations were measured with the Pierce BSA Protein Assay (ThermoFisher)."}, "AMPK [9]": {"molecular_target": "T1, AMPK (Homo sapiens, UniProt Q13131+Q9Y478)", "T1 construct": "endogenous in cells; host or cells: mobilized human CD34+ HSPC from a healthy donor, day 11 of erythroid differentiation", "T1 sequence (Q13131 whole entry)": "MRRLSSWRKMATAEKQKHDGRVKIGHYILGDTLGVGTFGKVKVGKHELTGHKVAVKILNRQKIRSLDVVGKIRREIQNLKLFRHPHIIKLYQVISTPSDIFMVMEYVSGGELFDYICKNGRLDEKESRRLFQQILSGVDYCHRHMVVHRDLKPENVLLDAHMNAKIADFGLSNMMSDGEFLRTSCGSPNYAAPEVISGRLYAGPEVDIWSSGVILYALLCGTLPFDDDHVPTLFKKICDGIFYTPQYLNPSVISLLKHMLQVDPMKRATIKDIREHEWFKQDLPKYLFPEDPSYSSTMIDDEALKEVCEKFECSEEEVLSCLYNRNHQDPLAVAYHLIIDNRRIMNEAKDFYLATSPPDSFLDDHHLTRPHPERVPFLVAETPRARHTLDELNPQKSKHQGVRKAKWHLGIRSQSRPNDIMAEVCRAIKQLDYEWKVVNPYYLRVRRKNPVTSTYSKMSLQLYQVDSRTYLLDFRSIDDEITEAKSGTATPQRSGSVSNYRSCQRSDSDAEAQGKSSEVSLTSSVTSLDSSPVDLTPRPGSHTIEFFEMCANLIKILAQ", "T1 sequence (Q9Y478 2-270)": "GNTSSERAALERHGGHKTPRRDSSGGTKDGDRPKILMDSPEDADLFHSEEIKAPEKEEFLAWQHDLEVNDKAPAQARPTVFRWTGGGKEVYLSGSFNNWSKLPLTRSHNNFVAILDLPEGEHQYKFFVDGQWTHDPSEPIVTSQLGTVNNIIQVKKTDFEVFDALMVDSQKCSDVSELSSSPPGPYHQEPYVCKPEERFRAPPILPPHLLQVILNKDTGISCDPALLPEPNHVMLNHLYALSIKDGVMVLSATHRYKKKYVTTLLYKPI", "T1 sequence (P54619 whole entry partner)": "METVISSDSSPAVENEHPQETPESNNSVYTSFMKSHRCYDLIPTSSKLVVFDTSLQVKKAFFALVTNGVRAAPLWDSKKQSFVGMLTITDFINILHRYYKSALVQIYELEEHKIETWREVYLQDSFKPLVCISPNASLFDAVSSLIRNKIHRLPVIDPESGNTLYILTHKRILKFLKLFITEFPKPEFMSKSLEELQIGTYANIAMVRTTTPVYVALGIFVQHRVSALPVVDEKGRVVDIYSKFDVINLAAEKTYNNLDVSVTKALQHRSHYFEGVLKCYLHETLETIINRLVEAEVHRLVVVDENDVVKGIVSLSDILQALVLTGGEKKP", "experiment": "AMPK target engagement: Thr172 phosphorylation of alpha-AMPK (Alpha SureFire Ultra Multiplex) in CD34+ cells at day 11 of differentiation", "assay_type": "cell-based", "conditions": "differentiated CD34+ cells"}}}
{"smiles": "O=C(O)c1c[nH]c2cc(Cl)c(-c3ccc(C4(O)CCC4)cc3)cc12", "note": "[Compound 1]", "values": [{"measurement": "fetal hemoglobin induction, F-cell (HbF+) frequency in enucleated GlyA+ cells", "setting": "human CD34+ cells [1]; 14 days of differentiation", "value": "increases"}, {"measurement": "increase of HbF+ cells compared to DMSO", "setting": "human CD34+ cells [1]; 21 days of differentiation", "value": "about 2 fold"}, {"measurement": "frequency of F-cells (HbF+)", "setting": "human CD34+ cells [1]; 21 days of differentiation", "value": "increase"}, {"measurement": "expression of differentiation markers CD71 and CD235a", "setting": "human CD34+ cells [2]; after 14 days of differentiation", "value": "unchanged"}, {"measurement": "enucleation of CD34+ cells", "setting": "human CD34+ cells [2]; after 21 days of differentiation", "value": "no effect"}, {"measurement": "F-cell (HbF+) frequency in enucleated GlyA+ cells", "setting": "[3]", "value": "increase"}, {"measurement": "expression of proinflammatory M1 marker CD38", "setting": "M1 macrophages", "value": "decreased"}, {"measurement": "expression of proinflammatory M1 marker CD64", "setting": "M1 macrophages", "value": "decreased"}, {"measurement": "expression of proinflammatory M1 marker CD80", "setting": "M1 macrophages", "value": "decreased"}, {"measurement": "expression of proinflammatory M1 marker CD86", "setting": "M1 macrophages", "value": "decreased"}, {"measurement": "mRNA for human HbF (human γ-globin, HBG) increase", "setting": "[4]", "value": "not"}, {"measurement": "fetal hemoglobin protein expression in bone marrow", "setting": "fetal hemoglobin protein", "value": "increase"}, {"measurement": "ROS in bone marrow", "setting": "[5]", "value": "decrease"}, {"measurement": "Nrf2-antioxidant response element signaling pathway (IPA of proteomics data)", "setting": "[6]", "value": "activated"}, {"measurement": "HO-1 (HMOX1) protein regulation", "setting": "[6]; vs DMSO", "value": "upregulated"}, {"measurement": "SQSTM1 protein regulation", "setting": "[6]; vs DMSO", "value": "upregulated"}, {"measurement": "hematocrit", "setting": "[7]", "value": "does not reduce"}, {"measurement": "hemoglobin", "setting": "[7]", "value": "does not reduce"}, {"measurement": "red blood cell counts (RBC)", "setting": "[7]", "value": "does not reduce"}]}
{"smiles": "N#Cc1c(O)c2c(-c3ccc(-c4ccccc4O)cc3)csc2[nH]c1=O", "note": "[Compound 2]", "values": [{"measurement": "frequency of F-cells (HbF+)", "setting": "human CD34+ cells [1]; 21 days of differentiation", "value": "increase"}, {"measurement": "time of peak AMPK phosphorylation (Thr172, pAMPK/total AMPK)", "setting": "AMPK [8]", "value": "around 1 hours"}]}
{"smiles": "OCCOc1cc(F)c(COc2nc3nc(O[C@@H]4CO[C@H]5[C@@H]4OC[C@H]5O)[nH]c3cc2Cl)c(F)c1", "note": "[Compound 3]", "values": [{"measurement": "frequency of F-cells (HbF+)", "setting": "human CD34+ cells [1]; 21 days of differentiation", "value": "increase"}, {"measurement": "time of peak AMPK phosphorylation (Thr172, pAMPK/total AMPK)", "setting": "AMPK [9]", "value": "around 3 hour"}, {"measurement": "time of peak AMPK phosphorylation (Thr172, pAMPK/total AMPK)", "setting": "AMPK [8]", "value": "around 1 hours"}]}
{"smiles": "COc1cccc(-n2c(=O)[nH]c3cc(Cl)n(-c4ccc(-c5cccc(OC)c5O)cc4)c3c2=O)c1", "note": "[Compound 4]", "values": [{"measurement": "frequency of F-cells (HbF+)", "setting": "human CD34+ cells [1]; 21 days of differentiation", "value": "increase"}, {"measurement": "time of peak AMPK phosphorylation (Thr172, pAMPK/total AMPK)", "setting": "AMPK [9]", "value": "around 3 hour"}, {"measurement": "time of peak AMPK phosphorylation (Thr172, pAMPK/total AMPK)", "setting": "AMPK [8]", "value": "around 1 hours"}]}
{"smiles": "NC(=O)NO", "note": "[Hydroxyurea, hydroxyurea]", "values": [{"measurement": "fetal hemoglobin induction, F-cell (HbF+) frequency in enucleated GlyA+ cells", "setting": "human CD34+ cells [1]; 14 days of differentiation", "value": "increases"}, {"measurement": "fold change in fetal hemoglobin expression compared to control", "setting": "human CD34+ cells [1]; 14 days of differentiation, vs Vehicle (DMSO)", "value": "1,5 fold"}, {"measurement": "F-cell (HbF+) frequency in enucleated GlyA+ cells", "setting": "[3]", "value": "increase"}]}
